Measurements as given in patent US10770169B2, “Method of providing a treatment to a subject based on a dynamic pathway map” (THE REGENTS OF THE UNIVERSITY OF CALIFORNIA, priority 2010, dated 2020).

Test system: panel of 55 breast cancer cell lines
Test: Cell growth inhibition assay (Cell Titer Glo, 72 h, 9 doses; GI50, TGI, LC50)
Type: cell-based, human
Settings: value is the negative log10 of mol/L
[1] = 600MPE cell line, censored GI50 values
[2] = BT549 cell line, censored GI50 values
[3] = HCC70 cell line, censored GI50 values
[4] = HCC202 cell line, censored GI50 values
[5] = HCC1395 cell line, censored GI50 values
[6] = HCC1419 cell line, censored GI50 values
[7] = HCC1806 cell line, censored GI50 values
[8] = HCC1954 cell line, censored GI50 values
[9] = MDAMB134VI cell line, censored GI50 values
[10] = MDAMB175VII cell line, censored GI50 values
[11] = MDAMB231 cell line, censored GI50 values
[12] = MDAMB415 cell line, censored GI50 values
[13] = MDAMB453 cell line, censored GI50 values
[14] = SUM149PT cell line, censored GI50 values
[15] = SUM159PT cell line, censored GI50 values
[16] = SUM1315MO2 cell line, censored GI50 values

CC(=O)Nc1cccc(-n2c(=O)n(C3CC3)c(=O)c3c(Nc4ccc(I)cc4F)n(C)c(=O)c(C)c32)c1.C[S+](C)[O-] [GSK1120212B]
GI50 [1]: 8.17
GI50 [2]: 5.17
GI50 [3]: 8.18
GI50 [4]: 10.23
GI50 [5]: 6.71
GI50 [6]: 7.23
GI50 [7]: 5.08
GI50 [8]: 6.53
GI50 [9]: 7.72
GI50 [10]: 7.94
GI50 [11]: 6.86
GI50 [12]: 6.13
GI50 [13]: 6.61
GI50 [14]: 7.51
GI50 [15]: 7.93
GI50 [16]: 7.19
GI50 (cell line 600MPE): 8.17
GI50 (cell line AU565): 4.82
GI50 (cell line BT474): 4.78
GI50 (cell line BT483): 4.78
GI50 (cell line BT549): 5.17
GI50 (cell line CAMA1): 4.78
GI50 (cell line HCC38): 4.78
GI50 (cell line HCC70): 8.18
GI50 (cell line HCC202): 10.23
GI50 (cell line HCC1187): 4.78
GI50 (cell line HCC1395): 6.71
GI50 (cell line HCC1419): 7.23
GI50 (cell line HCC1428): 4.78
GI50 (cell line HCC1500): 4.78
GI50 (cell line HCC1806): 5.08
GI50 (cell line HCC1937): 4.78
GI50 (cell line HCC1954): 6.53
GI50 (cell line HCC2185): 4.78
GI50 (cell line HCC3153): 4.78
GI50 (cell line LY2): 4.78
GI50 (cell line MCF7): 4.78
GI50 (cell line MDAMB134V): 7.72
GI50 (cell line MDAMB157): 4.78
GI50 (cell line MDAMB175V): 7.94
GI50 (cell line MDAMB231): 6.86
GI50 (cell line MDAMB361): 4.78
GI50 (cell line MDAMB415): 6.13
GI50 (cell line MDAMB436): 4.81
GI50 (cell line MDAMB453): 6.61
GI50 (cell line MDAMB468): 4.85
GI50 (cell line SKBR3): 4.78
GI50 (cell line SUM52PE): 5.06
GI50 (cell line SUM149PT): 7.51
GI50 (cell line SUM159PT): 7.93
GI50 (cell line SUM185PE): 4.78
GI50 (cell line SUM1315MO): 7.19
GI50 (cell line T47D): 4.78
GI50 (cell line UACC812): 4.78
GI50 (cell line UACC893): 4.81
GI50 (cell line ZR75B): 4.78
GI50 (cell line ZR751): 4.78

CNC(=O)c1c(F)cccc1Nc1nc(Nc2cc3c(cc2OC)CCN3C(=O)CN(C)C)nc2[nH]ccc12 [GSK1838705A]
GI50 [1]: 6.49
GI50 (AU565 cell line, censored GI50 values): 5.63
GI50 (BT20 cell line, censored GI50 values): 4.63
GI50 (BT474 cell line, censored GI50 values): 5.08
GI50 (BT483 cell line, censored GI50 values): 5.52
GI50 [2]: 5.21
GI50 (CAMA1 cell line, censored GI50 values): 5.05
GI50 (HCC38 cell line, censored GI50 values): 5.00
GI50 [3]: 5.18
GI50 [4]: 5.11
GI50 (HCC1143 cell line, censored GI50 values): 5.55
GI50 (HCC1187 cell line, censored GI50 values): 5.61
GI50 [5]: 5.28
GI50 [6]: 5.21
GI50 (HCC1428 cell line, censored GI50 values): 5.79
GI50 (HCC1500 cell line, censored GI50 values): 5.02
GI50 [7]: 4.27
GI50 (HCC1937 cell line, censored GI50 values): 4.71
GI50 [8]: 5.08
GI50 (HCC2185 cell line, censored GI50 values): 5.54
GI50 (HCC3153 cell line, censored GI50 values): 5.26
GI50 (LY2 cell line, censored GI50 values): 6.26
GI50 (MCF7 cell line, censored GI50 values): 5.89
GI50 [9]: 5.06
GI50 (MDAMB157 cell line, censored GI50 values): 5.05
GI50 [10]: 5.30
GI50 [11]: 5.28
GI50 (MDAMB361 cell line, censored GI50 values): 5.04
GI50 [12]: 5.37
GI50 (MDAMB436 cell line, censored GI50 values): 5.00
GI50 [13]: 5.07
GI50 (MDAMB468 cell line, censored GI50 values): 5.29
GI50 (SKBR3 cell line, censored GI50 values): 5.16
GI50 [14]: 5.41
GI50 [15]: 5.46
GI50 (SUM185PE cell line, censored GI50 values): 5.48
GI50 (SUM225CWN cell line, censored GI50 values): 4.89
GI50 [16]: 5.33
GI50 (cell line 600MPE): 6.49
GI50 (cell line AU565): 5.63
GI50 (cell line BT20): 4.63
